Source: patent US8669072B2, “Oxadiazoline ligands for modulating the expression of exogenous genes via an ecdysone receptor complex” (Intrexon Corporation, priority 2003, dated 2014)

Legend:
[1] = target: T1, GAL4 DBD-CfEcR(DEF)/VP16AD-MmRXRE (Choristoneura fumiferana, UniProt O77240); assay: 13B3 assay: luciferase reporter gene induction in stable CHO clone 13B3; format: cell-based; details: 33/33.3 μM ligand, 48 h, RLU relative to DMSO
T1 construct: The wild-type D, E, and F domains from spruce budworm Choristoneura fumiferana EcR (“CfEcR-DEF”)
Procedure: CHO cells were transiently transfected with transcription cassettes for GAL4 DBD-CfEcR(DEF) and for VP16AD-MmRXRF controlled by SV40e promoters. Stably transfected cells were selected using Hygromycin. Individually isolated CHO cell clones were transiently transfected with a GAL4 RE-luciferase reporter (pFR-Luc, Stratagene, La Jolla, Calif.). The 13B3 clone was selected using Zeocin.
(§1) Cells were trypsinized and diluted to a concentration of 2.5×10^4 cells mL. 100 μL of cell suspension was placed in each well of a 96 well plate and incubated at 37° C. under 5% CO2 for 24 h. Ligand stock solutions were prepared in DMSO and diluted 300 fold for all treatments.
(§2) Luciferase reporter gene expression was measured 48 h after cell treatment using Bright-Glo™ Luciferase Assay System from Promega (E2650). Luminescence was detected at room temperature using a Dynex MLX microtiter plate luminometer.
(§3) Each assay was conducted in two separate wells, and the two values were averaged. Fold inductions were calculated by dividing relative light units (“RLU”) in ligand treated cells with RLU in DMSO treated cells. EC50s were calculated from dose response data using a three-parameter logistic model.

[2] = target: T2, Bombyx mori EcR (VBE) (Bombyx mori, UniProt P49881); assay: Z3 assay: β-galactosidase reporter gene induction in HEK-293 clone Z3 (CVBE / 6XEcRE LacZ); format: cell-based; details: 33 μM ligand, 48 h, RLU relative to DMSO; for fold induction at 33 µM: HEK293, read-out: Fold Induction Average, Z3 assay
T2 construct: expressed in transfected cells; host or cells: Human HEK-293 cells, retrovirally infected, clone Z3
T2 sequence (P49881 86-606 limits assumed): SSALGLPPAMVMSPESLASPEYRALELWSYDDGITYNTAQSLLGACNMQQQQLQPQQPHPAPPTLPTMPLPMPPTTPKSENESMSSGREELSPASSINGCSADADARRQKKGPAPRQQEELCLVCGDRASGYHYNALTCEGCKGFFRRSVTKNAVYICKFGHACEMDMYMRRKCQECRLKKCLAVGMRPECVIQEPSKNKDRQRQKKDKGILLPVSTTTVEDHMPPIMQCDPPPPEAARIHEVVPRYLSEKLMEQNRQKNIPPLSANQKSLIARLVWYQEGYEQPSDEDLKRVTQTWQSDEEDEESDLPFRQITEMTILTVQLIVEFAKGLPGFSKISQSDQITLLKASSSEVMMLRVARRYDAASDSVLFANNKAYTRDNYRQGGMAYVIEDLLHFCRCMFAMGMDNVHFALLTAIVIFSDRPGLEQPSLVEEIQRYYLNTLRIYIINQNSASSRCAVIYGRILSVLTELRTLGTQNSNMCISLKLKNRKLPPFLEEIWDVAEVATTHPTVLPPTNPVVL
T2 sequence (P19793 1-462 partner): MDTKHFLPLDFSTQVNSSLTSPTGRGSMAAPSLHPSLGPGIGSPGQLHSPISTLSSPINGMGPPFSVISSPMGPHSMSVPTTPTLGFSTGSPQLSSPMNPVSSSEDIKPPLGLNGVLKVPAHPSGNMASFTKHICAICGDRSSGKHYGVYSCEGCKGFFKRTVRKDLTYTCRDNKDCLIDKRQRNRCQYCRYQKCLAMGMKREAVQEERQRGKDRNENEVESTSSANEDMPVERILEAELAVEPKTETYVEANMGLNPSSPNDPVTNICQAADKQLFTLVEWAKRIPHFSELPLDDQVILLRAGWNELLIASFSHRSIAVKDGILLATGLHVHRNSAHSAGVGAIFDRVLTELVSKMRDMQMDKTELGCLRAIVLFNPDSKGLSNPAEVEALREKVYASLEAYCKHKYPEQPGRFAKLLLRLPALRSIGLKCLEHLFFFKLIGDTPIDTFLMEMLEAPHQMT
Procedure: A synthetic ATG start codon was placed under the control of cytomegalovirus (CVBE) immediate early promoter and flanked by long terminal repeats (LTR). The reporter construct contained six copies of the ecdysone response element (EcRE) binding site placed upstream of LacZ and flanked on both sides with LTR sequences (6×EcRE).
Dilution cloning was used to isolate individual clones. Clones were selected using 450 ug/mL G418 and 100 ng/mL puromycin. Individual clones were evaluated based on their response in the presence and absence of test ligands.
Z3 cells were seeded into 96-well tissue culture plates at a concentration of 2.5×10^3 cells per well and incubated at 37° C. in 5% CO2 for twenty-four hours. Stock solutions of ligands were prepared in DMSO. […] The final concentration of DMSO was maintained at 0.03% in both controls and treatments.
Reporter gene expression was evaluated 48 hours after treatment of cells, β-galactosidase activity was measured using Gal Screen™ bioluminescent reporter gene assay system from Tropix (GSY1000). Fold induction activities were calculated by dividing relative light units (“RLU”) in ligand treated cells with RLU in DMSO treated cells. Luminescence was detected at room temperature using a Dynex MLX microtiter plate luminometer.
as §3

[3] = target: T3, GAL4 DBD (1-147)-CfEcR(DEF)/VP16AD-βRXREF-LmUSPEF (Choristoneura fumiferana, UniProt O77240); assay: cell-based; details: for fold induction at 33.3 µM: 48 h, read-out: Fold Induction Average, 27-63 assay; for Rel Max FI, 27-63 assay: maximum fold induction relative to that of GS-E ligand
T3 construct: The wild-type D, E, and F domains from spruce budworm Choristoneura fumiferana EcR (“CfEcR-DEF”)
Procedure: Stably transfected cells were selected by Zeocin resistance. Individually isolated CHO cell clones were transiently transfected with a GAL4 RE-luciferase reporter (pFR Luc). 27-63 clone was selected using Hygromycin.
as §1, §2, §3

SMILES | Fold Induction Average, 13B3 assay [1] | Fold Induction Average, Z3 assay [2] | EC50 [3] [µM] | fold induction at 33.3 µM [3] | Rel Max FI, 27-63 assay [3] | also measured
CCC1(C)ON=C(c2cc(C)cc(C)c2)N1NC(=O)COCc1ccccc1 (stereo not shown) [RG-120050] | 0.9 | 3.5 |  |  |  | 
CCc1ccc(C(=O)NN2C(c3cccc(C(F)(F)F)c3)=NOC2(C)C)cc1 [RG-120148] |  |  | > 33 | 0.7 | 0 | fold induction at 33 µM [2]: 1.1
CC1(C)ON=C(c2ccc(Cl)cc2)N1NC(=O)c1ccco1 [RG-120082] | 0.1 | 0.8 |  |  |  | 
CC1(C)ON=C(c2cccc(C(F)(F)F)c2)N1NC(=O)COc1ccccc1 [RG-120163] | 1.1 | 0.5 |  |  |  | 
CC1(C)ON=C(c2ccc(Cl)cc2)N1NC(=O)Nc1ccccc1 [RG-120067] | 2.6 | 0.5 |  |  |  | 
CCc1ccc(C(=O)NN2C(c3cc(C)cc(C)c3)=NOC2(C)CC)c(F)c1 (stereo not shown) [RG-121513] |  |  | ~10 | 1020 | 0.44 | 
CC1(C)ON=C(c2ccc(OC(F)(F)F)cc2)N1NC(=O)Nc1ccccc1 [RG-120122] | 0.5 | 0.6 |  |  |  | 
CC1(C)ON=C(c2ccc(Cl)cc2)N1NC(=O)c1ccccc1 [RG-120151] | 0.3 | 0.8 |  |  |  | 
Cc1cc(C)cc(C2=NOC3(CCCC3)N2NC(=O)COCc2ccccc2)c1 [RG-120052] | 0.7 | 4.9 |  |  |  | 
CC1(C)ON=C(c2ccc(Cl)cc2)N1NC(=O)c1cc2ccccc2s1 [RG-120087] | 0.4 | 0.4 |  |  |  | 
CC1(C)ON=C(c2ccc(OC(F)(F)F)cc2)N1NC(=O)Cc1ccccc1 [RG-120160] | 0.3 | 0.6 |  |  |  | 
COc1ccccc1C(=O)NN1C(c2cc(C)cc(C)c2)=NOC1(C)C [RG-120075] | 1.1 | 0.7 |  |  |  | 
Cc1cc(C)cc(C2=NOC(C)(C)N2NC(=O)Nc2ccccc2)c1 [RG-120072, 1-[3-(3,5-Dimethyl-phenyl)-5,5-dimethyl-[1,2,4]oxadiazol-4-yl]-3-phenyl-urea] |  |  |  |  |  | fold induction at 33.3 µM ([1]; read-out: Fold Induction Average, 13B3 assay): 0.6; fold induction at 33 µM [2]: 1.3
CC1(C)ON=C(c2ccc3c(c2)OCO3)N1NC(=O)COc1ccccc1 [RG-120127] | 0.6 | 0.7 |  |  |  | 
COc1ccccc1C1=NOC(C)(C)N1NC(=O)c1ccco1 [RG-120012] | 0.7 | 0.7 |  |  |  | 
CC1(C)ON=C(c2ccc3c(c2)OCO3)N1NC(=O)COCc1ccccc1 [RG-120145] | 1.4 | 0.5 |  |  |  | 
COc1ccc(C2=NOC(C)(C)N2NC(=O)COCc2ccccc2)c(OC)c1 [RG-120110] | 0.8 | 0.5 |  |  |  | 
CCc1c(OC)cccc1C(=O)NN1C(c2cccc(C(F)(F)F)c2)=NOC1(C)C [RG-120093] |  |  | > 33 | 5 | 0 | fold induction at 33 µM [2]: 0.2
COc1ccc(C2=NOC(C)(C)N2NC(=O)Nc2ccccc2)c(OC)c1 [RG-120114] | 1.1 | 0.6 |  |  |  | 

SMILES | Fold Induction Average, 13B3 assay [1] | Fold Induction Average, Z3 assay [2] | EC50 [3] [µM] | fold induction at 33.3 µM [3] | Rel Max FI, 27-63 assay [3] | also measured
CCOC(=O)CCC(=O)NN1C(c2ccc(OC)cc2OC)=NOC1(C)C [RG-120038] |  | 0.2 |  |  |  | 
CCOC(=O)CCC(=O)NN1C(c2cccc(C(F)(F)F)c2)=NOC1(C)C [RG-120153] | 0.8 | 0.7 |  |  |  | 
CCc1c(C(=O)NN2C(c3ccccc3)=NOC2(C)C)ccc2c1OCCO2 [RG-121517, 5-ethyl-2,3-dihydro-benzo[1,4]dioxine-6-carboxylic acid (5,5-dimethyl-3-phenyl-[1,2,4]oxadiazol-4-yl)-amide] |  |  | ~20 | 3510 | 1.55 | 
Cc1cc(C)cc(C2=NOC3(CCOCC3)N2NC(=O)c2ccccc2)c1 [RG-120019] |  |  | > 33 | 1.5 | 0 | 
CCOC(=O)CCC(=O)NN1C(c2ccccc2)=NOC12CCCC2 [RG-120014] |  | 1.1 |  |  |  | 
CCc1ccc(C(=O)NN2C(c3ccccc3)=NOC23CCCC3)c(F)c1 [RG-121514] |  |  | 3.89 | 1.7 | 0.5 | 
COc1ccccc1C1=NOC(C)(C)N1NC(=O)Cc1ccccc1 [RG-120157] |  | 0.9 |  |  |  | 
CCc1ccc(C(=O)NN2C(c3ccccc3)=NOC2(C)C)c(F)c1 [RG-121516] |  |  | > 33 | 7.9 | 0 | 
CC1(C)ON=C(c2cccc(C(F)(F)F)c2)N1NC(=O)C(F)(F)C(F)(F)Cl [RG-120059] |  | 0.6 |  |  |  | 
Cc1cc(C)cc(C2=NOC3(CCOCC3)N2NC(=O)COc2ccccc2)c1 [RG-120048] |  | 1.0 |  |  |  | 
CCc1c(OC)cccc1C(=O)NN1C(c2ccc(OC(F)(F)F)cc2)=NOC1(C)C [RG-120022] |  |  | > 33 | 0.3 | 0 | fold induction at 33 µM [2]: 0.1
CCc1ccc(C(=O)NN2C(c3cc(C)cc(C)c3)=NOC23CCOCC3)cc1 [RG-120005] |  |  | > 33 | 0.8 | 0 | 
CC1(C)ON=C(c2ccc(OC(F)(F)F)cc2)N1NC(=O)c1cc2ccccc2s1 [RG-120109] |  | 0.2 |  |  |  | 
CCc1c(C(=O)NN2C(c3cc(C)cc(C)c3)=NOC2(C)CC)ccc2c1OCCO2 (stereo not shown) [RG-121518] |  |  | 3.57 | 2340 | 1.08 | 
CC1(C)ON=C(c2cccc(C(F)(F)F)c2)N1NC(=O)c1cc2ccccc2s1 [RG-120108] |  | 0.3 |  |  |  | 
CCc1c(OC)cccc1C(=O)NN1C(c2ccc3c(c2)OCO3)=NOC1(C)C [RG-120023] |  |  | > 33 | 1.4 | 0 | fold induction at 33 µM [2]: 0.2
COc1ccc(C2=NOC(C)(C)N2NC(=O)Cc2ccccc2)c(OC)c1 [RG-120078] |  | 0.4 |  |  |  | 
CCc1ccc(C(=O)NN2C(c3cc(C)cc(C)c3)=NOC23CCCC3)c(F)c1 [RG-121515] |  |  | ~5 | 36.6 | 0.17 | 
